{"source": "patent US8207136B2", "about": "“Nucleoside compounds and methods of use thereof” (The Board of Trustees of the University of Illinois, priority 2005, dated 2012)", "key": {"p53, p21, hdm2, survivin": {"test_system": "p53, p21, hdm2, survivin", "assay": "Immunoblot of p53, p21, hdm2 and survivin levels in cancer cell lines", "assay_type": "cell-based, human", "method": "(§1) Immunoblotting was performed as described with antibodies specific for p53 (sc-126 HRP; Santa Cruz), hdm2 (sc-965; Santa Cruz), p21 (556431; BD Pharmingen), Sp1 (sc-59; Santa Cruz), survivin (sc-10811; Santa Cruz), phospho RNA polymerase II (4735; Cell Signaling), total RNA polymerase II (8WG16; a gift from Dr. Schlegel, University of Illinois at Chicago), α-tubulin (T9026; Sigma), cleaved caspase-3 (9664; Cell Signaling), caspase-9 (9502; Cell Signaling) and β-actin (A5441; Sigma) antibodies.\n(§2) In order to find small molecule transcriptional inhibitors of p21, we generated LIM1215 colon cancer cells, carrying lacZ under the control of p21 promoter, as a screening system for testing ˜2000 structurally diverse compounds (Diversity Set) obtained from National Cancer Institute (NCI). […] To determine if these effects mediated by ARC were dose-dependent, we treated HCT-116 colon carcinoma cells with different concentrations of ARC.\nIn order to evaluate the extent to which the ARC-mediated repression of p21, hdm2 and survivin are p53-dependent, a pair of isogenic colon cancer cell lines was employed differing only in their p53 status—HCT-116 wild-type and HCT-116-p53^−/− cells (gift from Dr. Bert Vogelstein)."}, "[1]": {"test_system": "phospho-RNA polymerase II", "assay": "Immunoblot of phospho-RNA polymerase II in HCT-116 cells", "assay_type": "cell-based, human", "conditions": "3 hours", "method": "as §1\nIt is known that DRB and flavopiridol inhibit transcription by blocking the kinase activity of P-TEFb, which in turn leads to decreased phosphorylation of RNA polymerase II C-terminal domain (CTD). To determine if ARC operates by a similar mechanism, a kinase assay was performed with purified P-TEFb using GST-CTD (GST tagged C-terminal domain of RNA polymerase II) as the substrate. […] To evaluate this effect in vivo, HCT-116 cells were treated with ARC for 3 hours and analyzed levels of phospho-RNA polymerase II by immunoblotting. While the total amount of RNA polymerase II remained unchanged, phosphorylation of the RNA polymerase II CTD decreased upon ARC treatment (FIG. 2D), consistent with the in vitro kinase assay."}, "[2]": {"test_system": "HIV Tat-mediated transcription", "assay": "HIV Tat-mediated transcription in HeLa MAGI cells", "assay_type": "cell-based, human immunodeficiency virus (HIV)", "conditions": "18 hours", "method": "FIG. 10. ARC has antiviral activity against HIV (human immunodeficiency virus) in a cell culture model. HeLa MAGI cells were infected with Adeno-Tat and treated with different amounts of ARC for 18 hours after which, MTT was added to measure cell viability and B-Gal expression was measured by ONPG assay. B-Gal expression is indicative of HIV Tat transactivation ability. Assays were done in quadruplicates."}, "p21 promoter": {"test_system": "p21 promoter", "assay": "p21 promoter-lacZ reporter screen in LIM1215 colon carcinoma cells", "assay_type": "cell-based, human", "conditions": "10 μM, 24 hours", "method": "LIM1215 colon carcinoma cells harboring the lacZ reporter gene under the control of a 2.3 kb p21 promoter (containing two p53 binding sites) were grown in 96-well plates. Diversity set, a chemical compound library containing approximately 2000 compounds (dissolved in DMSO), was obtained from the National Cancer Institute (NCI) and was used at a final concentration of 10 μM on the cells for 24 hours. lacZ encoded β-Gal was detected by X-Gal staining as described previously.\nas §2"}, "p53": {"test_system": "p53", "assay": "Gel shift assay with nuclear extracts and p53 consensus probe", "assay_type": "cell-based, human", "method": "Either purified p53 protein or nuclear extracts were used in the gel shift assays. For preparation of nuclear extracts, cells treated either with DMSO or different agents (doxorubicin, ARC and actinomycin D) were harvested 24 hours later and lysed in hypotonic buffer (10 mM HEPES pH 7.9, 1.5 mM MgCl2, 10 mM KCl, 0.2 mM PMSF, 0.5 mM DTT, 1 mM Na3VO4, 1 mM NaF, 1 mM Aprotinin and 1 mM Leupeptin), nuclei pelleted and treated with high-salt buffer (20 mM HEPES pH 7.9, 20% (v/v) glycerol, 1.5 mM MgCl2, 0.5 M KCl, 0.2 mM EDTA, 0.2 mM PMSF, 0.5 mM DTT, 1 mM Na3VO4, 1 mM NaF, 1 mM Aprotinin and 1 mM Leupeptin). Nuclear extracts (10 μg) or purified p53 protein (100 ng) were incubated with 0.5 ng of p53 consensus double-stranded oligos (5′-TACAGAACATGTCTAAGCATGCTGGGGACT-3′; Santa Cruz Biotechnology) that were labeled with [γ^32P]ATP. As a control, anti-p53 antibody (PAb421, EMD Biosciences) was used to supershift the p53/DNA complex. The reaction mixtures were resolved on a 4% acrylamide DNA-retardation gel, dried and exposed to X-ray film in the presence of intensifying screen.\nAlthough the effects of ARC were p53-independent, ARC did affect some properties of p53. […] This is in contrast to actinomycin D, which is known to enhance the DNA binding ability of p53 [22]. […] To determine if ARC retains p53 in the cytoplasm, which may lead to decreased binding in the gel shift assays, p53 levels in nuclear lysates were examined."}, "[3]": {"conditions": "cancer cell lines of different origin, 10 μM, 24 hours"}}, "data": [{"smiles": "NNc1c(C(N)=O)c2c(N)ncnc2n1[C@@H]1O[C@H](CO)[C@@H](O)[C@H]1O", "note": "[ARC, 4-amino-6-hydrazino-7-beta-D-ribofuranosyl-7H-pyrrolo[2,3-d]-pyrimidine-5-carboxamide]", "values": [{"measurement": "p21, hdm2 and survivin levels, p53 dependence", "setting": "p53, p21, hdm2, survivin; HCT-116-p53+/+ versus HCT-116-p53−/− cells", "result": "repressed irrespective of their p53 status"}, {"measurement": "p53, p21 and hdm2 levels, dose dependence", "setting": "p53, p21, hdm2, survivin; HCT-116 colon carcinoma cells, increasing amounts, 24 hours", "result": "increased p53 but simultaneously repressed its target genes p21 and hdm2 in a dose-dependent manner"}, {"measurement": "p53 levels in nuclear extracts", "setting": "p53, p21, hdm2, survivin; MCF-7 cells, ARC alone", "result": "highly induced"}, {"measurement": "hdm2 levels", "setting": "p53, p21, hdm2, survivin; [3]", "result": "downregulate hdm2"}, {"measurement": "p21 levels", "setting": "p53, p21, hdm2, survivin; [3]", "result": "repress p21 levels"}, {"measurement": "p53 levels", "setting": "p53, p21, hdm2, survivin; [3]", "result": "increased p53 levels"}, {"measurement": "survivin levels", "setting": "p53, p21, hdm2, survivin; [3]", "result": "downregulate"}, {"measurement": "phosphorylation of the RNA polymerase II CTD in cells", "setting": "[1]", "result": "decreased"}, {"measurement": "HIV Tat-mediated transcription (B-Gal expression)", "setting": "[2]; HeLa MAGI cells infected with Adeno-Tat", "result": "efficiently inhibited HIV Tat-mediated transcription in a dose-dependent manner"}, {"measurement": "rate of transcription versus cell viability (MTT)", "setting": "[2]; HeLa MAGI cells", "result": "affected more than the viability of cells"}, {"measurement": "p21 promoter driven β-Gal expression", "setting": "p21 promoter", "result": "inhibit p21 promoter"}, {"measurement": "DNA binding ability of p53, agent alone", "setting": "p53; MCF-7 nuclear extracts", "result": "did not influence the DNA binding ability of p53"}, {"measurement": "doxorubicin-induced DNA binding ability of p53", "setting": "p53; nuclear extracts from HCT-116 and MCF-7 cells, with doxorubicin", "result": "inhibited the doxorubicin-induced DNA binding ability of p53"}]}]}
